# Laboratory results as given in patent US20250367171A1, “THERAPEUTIC OR PROPHYLACTIC AGENT FOR PERIPHERAL NEUROPATHIES” (Toray Industries, Inc., priority 2017, published 2025).
# What was measured:
# [1] = tested on: rat oxaliplatin-induced peripheral neuropathy model; assay: Cold allodynia (cold plate test) in rat oxaliplatin-induced peripheral neuropathy model; assay type: in vivo; details: 10 mg/kg oral twice a day, day 12 after induction, vs vehicle group
# Experimental: Oxaliplatin (4 mg/kg, Elplat I.V. infusion solution […]; Yakult) was administered to SD rats (7 weeks old, male; CHARLES RIVER LABORATORIES JAPAN, INC.) in a cycle of 1 week (intraperitoneally administered twice, two consecutive days per week) for 2 or 3 weeks, thereby preparing an oxaliplatin-induced peripheral neuropathy model. As a control (pseudo-induction), a 5% glucose solution (Otsuka Pharmaceutical Factory, Inc.) was administered. The initial day of administration was designated as day 0 after induction of pathological conditions.
# A solution containing compound 1 (3 or 10 mg/kg) or a solvent thereof (water for injection; Otsuka Pharmaceutical Factory, Inc.) was orally administered everyday (twice a day) (2nd administration was performed 8 hours after the 1st administration) to rats from day 0 after induction of pathological conditions for 18 days. […]
# The beneficial effects on cold allodynia were evaluated before induction of pathological conditions and on day 12 after induction of pathological conditions (before the 1st administration of compound 1). Beneficial effects on cool allodynia were evaluated by cold plate test. […] An animal was placed on a plate kept at a predetermined temperature (8° C.), and then the withdrawal latency required until pain-related behaviors (hind paw lifting, hind paw shaking, hind paw licking, standing, or jumping) were confirmed was measured. […]
# [2] = tested on: myelin basic protein (MBP) in co-culture of rat dorsal root ganglion neurons and Schwann cells; assay: Expression level of MBP in co-culture, Western blotting; assay type: cell-based; details: 30 μM, day 43 of culture, vs vehicle treatment group
# Experimental: In a manner similar to Example 3, co-culture of rat dorsal root ganglion neurons and Schwann cells was prepared, myelination was induced, and then treatment with compound 1 was performed. Groups were composed of 2 groups: a sterile distilled water treatment group (Vehicle treatment group); and a 30 μM compound 1 treatment group (compound 1 treatment group).
# For Western blotting, on day 43 from the initial day of cell culture, the co-culture was lysed in a RIPA cell lysis solution, and then the cell lysate was subjected to sodium dodecyl sulfate-polyacrylamide gel electrophoresis. Subsequently, the protein was transferred to a PVDF membrane, and then an MBP band was detected by antibody reaction. Image Lab software (BIO-RAD) was used for quantifying the thus detected band.
# [3] = tested on: fetal rat dorsal root ganglion-derived established neuronal cell line ND15; assay: Protective effect on cisplatin-induced cell damage (alamarBlue cell viability), simultaneous treatment; assay type: cell-based; details: ND15 cells, cisplatin 50 μM 4 hours, simultaneous treatment with compound 1 at 0.5, 5 or 50 μM
# Experimental: A fetal rat dorsal root ganglion-derived established neuronal cell line ND15 was cultured in 10% FBS-containing DMEM. On the next day, the cells were cultured in 10% FBS-containing DMEM containing EC23 (10 μM, Reinner) for 8 days, for differentiation into neurons.
# The medium was exchanged with DMEM/F12 medium containing cisplatin (final concentration of 50 μM) followed by 4 hours of culture, thereby inducing cell injury. Compound 1 was contained in the medium (final concentration of 0.5, 5 or 50 μM) for treatment, in a manner similar to that for cisplatin. Groups were composed of 6 groups: an untreated group, a 50 μM compound 1 treatment group (the group treated with 50 μM compound 1), a cisplatin treatment group, a cisplatin and 0.5 μM compound 1 treatment group (the group treated with cisplatin and 0.5 μM compound 1), a cisplatin and 5 μM compound 1 treatment group, and a cisplatin and 50 μM compound 1 treatment group.
# For measurement of cell viability, the medium was exchanged with DMEM/F12 medium containing alamarBlue (Invitrogen), followed by 2 hours of culture, and then the absorbance at wavelength of 570 nm and the absorbance at wavelength of 595 nm were measured. Cell viability was calculated using the ratio of the absorbance at wavelength of 570 nm to the absorbance at wavelength of 595 nm and the untreated group designated as 100%.
# [4] = tested on: rat streptozotocin-induced diabetes model; assay: Mechanical allodynia (von Frey test) in rat streptozotocin-induced diabetes model; assay type: in vivo; details: day 28, 3 hours after administration, vs vehicle group
# Experimental: Streptozotocin (50 mg/kg, Sigma-Aldrich) was administered intravenously to SD rats (6 weeks old, male; CHARLES RIVER LABORATORIES JAPAN, INC.) via the tail vein, thereby preparing a streptozotocin-induced diabetes model. Streptozotocin was dissolved in physiological saline (Otsuka Pharmaceutical Factory, Inc.) to prepare a 25 mg/mL solution and then administered. Further, a pseudo-induction animal was also prepared by administering physiological saline instead of the streptozotocin solution. The initial day of administration was designated as day 0 after induction of pathological conditions.
# […] Groups were composed of 4 groups: a pseudo-induction and solvent administration group (sham group); a pathological condition-induced and solvent administration group (vehicle group); a pathological condition-induced and compound 1 (10 mg/kg) administration group (compound 1 (10 mg/kg) group); and a pathological condition-induced and compound 1 (30 mg/kg) administration group (compound 1 (30 mg/kg) group).
# Beneficial effects on mechanical allodynia were evaluated in a manner similar to Example 5, and this evaluation was performed at 3 hours after administration of compound 1 on day 28 after induction of pathological conditions.
smiles,measurement,setting,value
"CN(C)C1CCN(C(=O)C[C@H](O)c2nccn2C)CC1 [Compound 1, (S)-1-(4-(dimethylamino)piperidin-1-yl)-3-hydroxy-3-(1-methyl-1H-imidazol-2-yl)propan-1-one]",withdrawal latency in cold plate test (cold allodynia),[1],significantly prolonged withdrawal latency
same,myelin sheath marker protein MBP expression level,[2],"increases in the myelin sheath marker protein, MBP"
same,cell viability (decrease caused by cisplatin),[3],suppressed decrease
same,50% response threshold in von Frey test (mechanical allodynia),[4]; 10 mg/kg oral single dose,significant increases in 50% response threshold
same,50% response threshold in von Frey test (mechanical allodynia),[4]; 30 mg/kg oral single dose,significant increases in 50% response threshold
